Assay results: ChEMBL document CHEMBL1149819, “Synthesis and in vivo anti-mutagenic activity of novel melatonin derivatives” (2008)

Columns and labels:
Details in all cases: route intragastric
Mus musculus [1] = assay: Antimutagenic activity in mouse kidney assessed as protein level per gram of tissue at 18.38 mg/kg administered intragastrically for 1 week; type: functional
Mus musculus [2] = assay: Antimutagenic activity against cyclophosphamide-induced mutagenicity in mouse liver assessed as protein level per gram of tissue at 18.38 mg/kg administered intragastrically for 1 week; type: functional
Mus musculus [3] = assay: Antimutagenic activity against cyclophosphamide-induced mutagenicity in Albino mouse testes assessed as RNA level per gram of tissue at 18.38 mg/kg administered intragastrically for 1 week; type: functional, Testis
Mus musculus [4] = assay: Antimutagenic activity against cyclophosphamide-induced mutagenicity in mouse kidney assessed as protein level per gram of tissue at 18.38 mg/kg administered intragastrically for 1 week; type: functional
Mus musculus [5] = assay: Antimutagenic activity against cyclophosphamide-induced mutagenicity in mouse brain assessed as protein level per gram of tissue at 18.38 mg/kg administered intragastrically for 1 week; type: functional
Mus musculus [6] = assay: Antimutagenic activity in Albino mouse kidney assessed as DNA level per gram of tissue at 18.38 mg/kg administered intragastrically for 1 week; type: functional
Mus musculus [7] = assay: Antimutagenic activity in Albino mouse kidney assessed as RNA level per gram of tissue at 18.38 mg/kg administered intragastrically for 1 week; type: functional
Mus musculus [8] = assay: Antimutagenic activity against cyclophosphamide-induced mutagenicity in Albino mouse brain assessed as RNA level per gram of tissue at 18.38 mg/kg administered intragastrically for 1 week; type: functional
Mus musculus [9] = assay: Antimutagenic activity in mouse brain assessed as protein level per gram of tissue at 18.38 mg/kg administered intragastrically for 1 week; type: functional
Mus musculus [10] = assay: Antimutagenic activity against cyclophosphamide-induced mutagenicity in Albino mouse kidney assessed as DNA level per gram of tissue at 18.38 mg/kg administered intragastrically for 1 week; type: functional
Mus musculus [11] = assay: Antimutagenic activity in Albino mouse testes assessed as RNA level per gram of tissue at 18.38 mg/kg administered intragastrically for 1 week; type: functional, Testis
Mus musculus [12] = assay: Antimutagenic activity against cyclophosphamide-induced mutagenicity in Albino mouse liver assessed as DNA level per gram of tissue at 18.38 mg/kg administered intragastrically for 1 week; type: functional
Mus musculus [13] = assay: Antimutagenic activity against cyclophosphamide-induced mutagenicity in mouse brain assessed as peroxidase activity per microgram of tissue at 18.38 mg/kg administered intragastrically for 1 week; type: functional
Mus musculus [14] = assay: Antimutagenic activity against cyclophosphamide-induced mutagenicity in mouse testes assessed as protein level per gram of tissue at 18.38 mg/kg administered intragastrically for 1 week; type: functional, Testis
Mus musculus [15] = assay: Antimutagenic activity against cyclophosphamide-induced mutagenicity in mouse brain assessed as cholinesterase activity per microgram of tissue at 18.38 mg/kg administered intragastrically for 1 week; type: functional
Mus musculus [16] = assay: Antimutagenic activity in Albino mouse brain assessed as RNA level per gram of tissue at 18.38 mg/kg administered intragastrically for 1 week; type: functional
Mus musculus [17] = assay: Antimutagenic activity in mouse liver assessed as protein level per gram of tissue at 18.38 mg/kg administered intragastrically for 1 week; type: functional
Mus musculus [18] = assay: Antimutagenic activity in Albino mouse liver assessed as RNA level per gram of tissue at 18.38 mg/kg administered intragastrically for 1 week; type: functional
Mus musculus [19] = assay: Antimutagenic activity against cyclophosphamide-induced mutagenicity in Albino mouse brain assessed as DNA level per gram of tissue at 18.38 mg/kg administered intragastrically for 1 week; type: functional
Mus musculus [20] = assay: Inhibition of cyclophosphamide-induced increase in micronuclei/polychromatic erythrocytes count in mouse at 14.16 mg/kg administered intragastrically for 1 week by micronuclei assay; type: functional; parameters: scale not given: the % may be the effect or the level left
Mus musculus [21] = assay: Antimutagenic activity in mouse brain assessed as peroxidase activity per microgram of tissue at 18.38 mg/kg administered intragastrically for 1 week; type: functional
Mus musculus [22] = assay: Antimutagenic activity in Albino mouse liver assessed as DNA level per gram of tissue at 18.38 mg/kg administered intragastrically for 1 week; type: functional
Mus musculus [23] = assay: Antimutagenic activity against cyclophosphamide-induced mutagenicity in Albino mouse testes assessed as DNA level per gram of tissue at 18.38 mg/kg administered intragastrically for 1 week; type: functional, Testis
Mus musculus [24] = assay: Antimutagenic activity against cyclophosphamide-induced mutagenicity in Albino mouse liver assessed as RNA level per gram of tissue at 18.38 mg/kg administered intragastrically for 1 week; type: functional
Mus musculus [25] = assay: Antimutagenic activity in mouse brain assessed as cholinesterase activity per microgram of tissue at 18.38 mg/kg administered intragastrically for 1 week; type: functional
Mus musculus [26] = assay: Antimutagenic activity in Albino mouse brain assessed as DNA level per gram of tissue at 18.38 mg/kg administered intragastrically for 1 week; type: functional
Mus musculus [27] = assay: Antimutagenic activity against cyclophosphamide-induced mutagenicity in Albino mouse kidney assessed as RNA level per gram of tissue at 18.38 mg/kg administered intragastrically for 1 week; type: functional
Mus musculus [28] = assay: Antimutagenic activity in Albino mouse testes assessed as DNA level per gram of tissue at 18.38 mg/kg administered intragastrically for 1 week; type: functional, Testis
Mus musculus [29] = assay: Antimutagenic activity in mouse brain assessed as protein level per gram of tissue at 23.04 mg/kg administered intragastrically for 1 week; type: functional
Mus musculus [30] = assay: Antimutagenic activity in Albino mouse testes assessed as DNA level per gram of tissue at 23.04 mg/kg administered intragastrically for 1 week; type: functional, Testis
Mus musculus [31] = assay: Antimutagenic activity against cyclophosphamide-induced mutagenicity in mouse testes assessed as protein level per gram of tissue at 23.04 mg/kg administered intragastrically for 1 week; type: functional, Testis
Mus musculus [32] = assay: Antimutagenic activity in Albino mouse kidney assessed as DNA level per gram of tissue at 23.04 mg/kg administered intragastrically for 1 week; type: functional
Mus musculus [33] = assay: Antimutagenic activity against cyclophosphamide-induced mutagenicity in Albino mouse kidney assessed as DNA level per gram of tissue at 23.04 mg/kg administered intragastrically for 1 week; type: functional
Mus musculus [34] = assay: Antimutagenic activity in mouse kidney assessed as protein level per gram of tissue at 23.04 mg/kg administered intragastrically for 1 week; type: functional
Mus musculus [35] = assay: Antimutagenic activity in Albino mouse liver assessed as RNA level per gram of tissue at 23.04 mg/kg administered intragastrically for 1 week; type: functional
Mus musculus [36] = assay: Antimutagenic activity against cyclophosphamide-induced mutagenicity in Albino mouse liver assessed as RNA level per gram of tissue at 23.04 mg/kg administered intragastrically for 1 week; type: functional
Mus musculus [37] = assay: Antimutagenic activity against cyclophosphamide-induced mutagenicity in Albino mouse liver assessed as DNA level per gram of tissue at 23.04 mg/kg administered intragastrically for 1 week; type: functional
Mus musculus [38] = assay: Antimutagenic activity in mouse brain assessed as peroxidase activity per microgram of tissue at 23.04 mg/kg administered intragastrically for 1 week; type: functional
Mus musculus [39] = assay: Antimutagenic activity against cyclophosphamide-induced mutagenicity in mouse kidney assessed as protein level per gram of tissue at 23.04 mg/kg administered intragastrically for 1 week; type: functional
Mus musculus [40] = assay: Inhibition of cyclophosphamide-induced increase in micronuclei/polychromatic erythrocytes count in mouse at 23.04 mg/kg administered intragastrically for 1 week by micronuclei assay; type: functional; parameters: scale not given: the % may be the effect or the level left
Mus musculus [41] = assay: Antimutagenic activity against cyclophosphamide-induced mutagenicity in mouse brain assessed as peroxidase activity per microgram of tissue at 23.04 mg/kg administered intragastrically for 1 week; type: functional
Mus musculus [42] = assay: Antimutagenic activity in mouse liver assessed as protein level per gram of tissue at 23.04 mg/kg administered intragastrically for 1 week; type: functional
Mus musculus [43] = assay: Antimutagenic activity in Albino mouse brain assessed as DNA level per gram of tissue at 23.04 mg/kg administered intragastrically for 1 week; type: functional
Mus musculus [44] = assay: Antimutagenic activity against cyclophosphamide-induced mutagenicity in Albino mouse brain assessed as DNA level per gram of tissue at 23.04 mg/kg administered intragastrically for 1 week; type: functional
Mus musculus [45] = assay: Antimutagenic activity against cyclophosphamide-induced mutagenicity in mouse brain assessed as cholinesterase activity per microgram of tissue at 23.04 mg/kg administered intragastrically for 1 week; type: functional
Mus musculus [46] = assay: Antimutagenic activity in Albino mouse kidney assessed as RNA level per gram of tissue at 23.04 mg/kg administered intragastrically for 1 week; type: functional
Mus musculus [47] = assay: Antimutagenic activity in mouse brain assessed as cholinesterase activity per microgram of tissue at 23.04 mg/kg administered intragastrically for 1 week; type: functional
Mus musculus [48] = assay: Antimutagenic activity against cyclophosphamide-induced mutagenicity in mouse liver assessed as protein level per gram of tissue at 23.04 mg/kg administered intragastrically for 1 week; type: functional
Mus musculus [49] = assay: Antimutagenic activity against cyclophosphamide-induced mutagenicity in Albino mouse testes assessed as DNA level per gram of tissue at 23.04 mg/kg administered intragastrically for 1 week; type: functional, Testis
Mus musculus [50] = assay: Antimutagenic activity in Albino mouse liver assessed as DNA level per gram of tissue at 23.04 mg/kg administered intragastrically for 1 week; type: functional
Mus musculus [51] = assay: Antimutagenic activity in Albino mouse testes assessed as RNA level per gram of tissue at 23.04 mg/kg administered intragastrically for 1 week; type: functional, Testis
Mus musculus [52] = assay: Antimutagenic activity against cyclophosphamide-induced mutagenicity in Albino mouse testes assessed as RNA level per gram of tissue at 23.04 mg/kg administered intragastrically for 1 week; type: functional, Testis
Mus musculus [53] = assay: Antimutagenic activity against cyclophosphamide-induced mutagenicity in Albino mouse brain assessed as RNA level per gram of tissue at 23.04 mg/kg administered intragastrically for 1 week; type: functional
Mus musculus [54] = assay: Antimutagenic activity against cyclophosphamide-induced mutagenicity in Albino mouse kidney assessed as RNA level per gram of tissue at 23.04 mg/kg administered intragastrically for 1 week; type: functional
Mus musculus [55] = assay: Antimutagenic activity against cyclophosphamide-induced mutagenicity in mouse brain assessed as protein level per gram of tissue at 23.04 mg/kg administered intragastrically for 1 week; type: functional
Mus musculus [56] = assay: Antimutagenic activity in Albino mouse brain assessed as RNA level per gram of tissue at 23.04 mg/kg administered intragastrically for 1 week; type: functional

COc1ccc2c(c1)c(CCNC(C)=O)c1sc(-c3sc(N)c(C#N)c3N)nn12
Activity (Mus musculus [1]): 7.17 g | Activity (Mus musculus [2]): 9.26 g | Activity (Mus musculus [3]): 0.2 mg | Activity (Mus musculus [4]): 4.14 g | Activity (Mus musculus [5]): 2.53 g | Activity (Mus musculus [6]): 0.34 mg | Activity (Mus musculus [7]): 0.28 mg | Activity (Mus musculus [8]): 0.16 mg | Activity (Mus musculus [9]): 2.76 g | Activity (Mus musculus [10]): 0.35 mg | Activity (Mus musculus [11]): 0.27 mg | Activity (Mus musculus [12]): 0.29 mg | Activity (Mus musculus [13]): 4.1 U/min | Activity (Mus musculus [14]): 3.11 g | Activity (Mus musculus [15]): 2.85 U | Activity (Mus musculus [16]): 0.19 mg | Activity (Mus musculus [17]): 9.81 g | Activity (Mus musculus [18]): 0.46 mg | Activity (Mus musculus [19]): 0.22 mg | Activity (Mus musculus [20]): 44% | Activity (Mus musculus [21]): 6.3 U/min | Activity (Mus musculus [22]): 0.33 mg | Activity (Mus musculus [23]): 0.3 mg | Activity (Mus musculus [24]): 0.49 mg | Activity (Mus musculus [25]): 3.76 U | Activity (Mus musculus [26]): 0.35 mg | Activity (Mus musculus [27]): 0.24 mg | Activity (Mus musculus [28]): 0.35 mg

COc1ccc2c(c1)c(CCNC(C)=O)c1sc(-c3c(-c4ccccc4)cnn(-c4ccccc4)c3=N)nn12
Activity (Mus musculus [29]): 3.2 g | Activity (Mus musculus [30]): 0.39 mg | Activity (Mus musculus [31]): 4.31 g | Activity (Mus musculus [32]): 0.38 mg | Activity (Mus musculus [33]): 0.36 mg | Activity (Mus musculus [34]): 8.68 g | Activity (Mus musculus [35]): 0.48 mg | Activity (Mus musculus [36]): 0.51 mg | Activity (Mus musculus [37]): 0.32 mg | Activity (Mus musculus [38]): 9.74 U/min | Activity (Mus musculus [39]): 4.96 g | Activity (Mus musculus [40]): 65% | Activity (Mus musculus [41]): 5.5 U/min | Activity (Mus musculus [42]): 10.23 g | Activity (Mus musculus [43]): 0.37 mg | Activity (Mus musculus [44]): 0.25 mg | Activity (Mus musculus [45]): 3.03 U | Activity (Mus musculus [46]): 0.47 mg | Activity (Mus musculus [47]): 4.21 U | Activity (Mus musculus [48]): 10.03 g | Activity (Mus musculus [49]): 0.31 mg | Activity (Mus musculus [50]): 0.35 mg | Activity (Mus musculus [51]): 0.36 mg | Activity (Mus musculus [52]): 0.2 mg | Activity (Mus musculus [53]): 0.17 mg | Activity (Mus musculus [54]): 0.4 mg | Activity (Mus musculus [55]): 3.15 g | Activity (Mus musculus [56]): 0.21 mg
